Test results taken from PMC9428149, “Tackling recalcitrant Pseudomonas aeruginosa infections in critical illness via anti-virulence monotherapy” (Nature Communications, 2022).
Values after ≈ are worked out from the molar mass of the structure shown. Values joined by “and” are separate entries in the source; they are usually repeats but may differ in a detail not shown here. Equal entries are not always repeated. Where two headings read alike, the source gives them in different places.

Columns and labels:
[1] = tested on: pqsA promoter (PA14 PpqsA-GFPASV); assay: pqsA-GFP reporter expression; assay type: cell-based, Pseudomonas aeruginosa; conditions: for % Production pqsA-GFP: PA14 PpqsA-GFPASV, 50µM per b210 (method b76 says 10 µM)
Protocol: The expression levels of pqsA, which is representative of the pqsABCDE operon transcription, were monitored in the presence of the MvfR inhibitors using PA14 cells containing the PpqsA-GFPASV, a reporter construct of the pqsA promoter fused to a short half-life GFP gene in, such that quantitative quenching of fluorescence corresponds to pqsA promoter repression[22],[32],[48]. […] GFP fluorescence levels were measured at λex = 485 nm/λem = 535 nm after 10 seconds of shaking every 15 min up to 12 h. The IC50 of PpqsA-GFP expression levels was performed as above using the same 13 different concentrations (0.0122–50 μM) for each of the 13 compounds tested.

MvfR protein (MvfRC87) = target: T1, MvfR protein (MvfRC87) (Pseudomonas aeruginosa, UniProt Q9I4X0); assay type: binding; conditions: SPR
T1 construct: The MvfRC87 protein purified as in Xiao et. al., 2006; made in house
Protocol: The selected compounds were tested for their ability to bind to MvfR. Target validation was carried out by using surface plasmon resonance (SPR). The MvfRC87 protein purified as in Xiao et. al., 2006[33] was covalently immobilized on a CM7 Series S sensor chip using an amine coupling reagent kit (GE Healthcare) at the range level of 3000 to 5000 response units (RU). RU was analyzed by Biacore T200 evaluation software 2.0 (GE Healthcare). The relative response units (RUs) 5 seconds before the end of the association were extracted from the double-reference-corrected sensor grams at different concentrations. These responses were plotted against their respective concentrations for MvfR inhibitor alone and in the presence of native MvfR ligand PQS and compared to the calculated responses for the mixture expected for different binding sites.

[2] = tested on: pyocyanin production in PA14; assay: Pyocyanin production assay; conditions: for % Production Pyocyanin: PA14, 50µM of each inhibitor (method says 10 μM), vs vehicle
[3] = tested on: MvfR-regulated small molecules in PA14; assay: Production of HAQs, 2-AA, DHQ and AA in PA14 cultures (LC-MS); conditions: for % Production 2-AA / % Production DHQ / % Production HHQ / % Production HQNO / % Production PQS / % Production AA: PA14, 50µM inhibitor; for % Production AA: anthranilic acid, precursor control; for activity at 50 µM / inhibition at 50 µM: Pseudomonas aeruginosa
[4] = target: MvfR binding to the pqsA promoter (Pseudomonas aeruginosa, UniProt Q9I4X0); assay type: cell-based; conditions: D88 −, PQS +; Figure 5c; replicates
PA14 AT/P cells = assay: AT/P cells formation assay in PA14; assay type: cell-based, Pseudomonas aeruginosa; conditions: Pseudomonas aeruginosa, PA14, 24 h, read-out: inhibition of AT/P cells formation
[5] = tested on: mvfR mutant constitutively expressing the pqsABCDE operon; assay type: cell-based; conditions: Pseudomonas aeruginosa, control about 100, single replicates (Figure 4a)
[6] = Solubility in iPBS pH 7.4 by HPLC; assay type: physicochemical; conditions: pH 7.4, aqueous with cosolvent or surfactant or cyclodextrin, kinetic from dmso stock
Protocol: Solubility of the 10 mM compounds dissolved in DMSO was tested in the isotonic phosphate buffer (iPBS) at pH 7.4 using High-Performance Liquid Chromatography (HPLC). For the preparation of iPBS phosphate-buffered saline tab (Sigma-Aldrich 08057-12Tab-F) is dissolved in 500 mL of deionized water and the final composition of the solution contains 10 mM PBS, 2.7 mM KCl, 140 mM NaCl and 0.05% Tween. A total 10 µL of the compound from a 10 mM stock solution in DMSO was added to the vial, and 190 µL of buffer was added to each vial and mixed with shaking at room temperature for 4 h. Thereafter the samples were filtered, and 160 µL of the sample was mixed with 40 µL of DMSO for the final injection. Ibuprofen (high solubility) and Progesterone (low Solubility) were used as standard compounds. Ammonium Acetate aqueous solution (50 mM, pH 7.4) and the acetonitrile were used as mobile phases A and B, respectively. The measurement of concentration was achieved by comparing of UV absorbance of the sample solution and the known standard solution following an HPLC separation using a generic fast gradient method. The solubility of each compound is expressed by the ratio of compound amount in the sample test solution to the amount of compound in the standard solution.

[7] = tested on: 16 MDR P. aeruginosa clinical isolates; assay: Pyocyanin production in MDR clinical isolates; conditions: Pseudomonas aeruginosa, 18 h, Control about 100, replicates
ΔmvfR biofilm = assay: Biofilm formation of ΔmvfR mutant (off-target); conditions: Pseudomonas aeruginosa, PA14, 24 h, read-out: Biofilm formation, ΔmvfR + compound; PA14 about 100; single replicates (Figure 4c)
Protocol: Biofilm was grown in the 96-well microtiter plate at 37 °C for 24 h containing M63 minimal media in the presence of 10 µM of the compounds or vehicle. The biofilm grown with the vehicle was considered as a control. The percentage value was calculated in comparison to the PA14 control. a–c Data represent at least n = 3, each dot on the graph represents one biological replicate. The number of biological replicates for each compound and strain is depicted in the graph. The error bars denote ±SEM.
The overnight grown starter culture was diluted 1:1000 in 5 mL LB media in a glass tube and was incubated at 37 °C and 200 rpm in an incubator shaker until the culture reached an OD600nm 3.0. The culture was then diluted at 1:100 in M63 minimal media supplemented with 0.2% glucose, 0.5% Casamino Acids, and 1 mM MgSO4. Initiation of the Biofilm formation was performed in the 96 well plates; 200 µL of diluted culture was added in the wells with (10 µM) or without compounds. The cultures were allowed to grow at 37 °C in static conditions for 24 hours. Thereafter, planktonic culture was removed from the wells, and wells were washed three times with distilled water (DW). Biofilm was stained with 0.1% crystal violet and incubated for 15 min at room temperature (RT). Access dye was removed from the wells and washed off three times with DW, and 200 µL ethanol: acetone (80:20) was added to the wells. The plate was incubated for 30 min at RT, and the OD was measured by spectrophotometry at 570 nm in the infinite F200 plate reader using the Magellan software (Tecan, Switzerland). Percent biofilm formation was calculated in comparison to PA14 culture that was grown in the absence of compounds.

[8] = tested on: PA14 isogenic mutant ΔmvfR AT/P cells; assay: AT/P cell formation in ΔmvfR mutant (off-target); conditions: Pseudomonas aeruginosa, PA14, 24 h, read-out: AT/P cell formation, ΔmvfR + compound; PA14 about 100; single replicates (Figure 4b)

T1 sequence (Q9I4X0 87-332): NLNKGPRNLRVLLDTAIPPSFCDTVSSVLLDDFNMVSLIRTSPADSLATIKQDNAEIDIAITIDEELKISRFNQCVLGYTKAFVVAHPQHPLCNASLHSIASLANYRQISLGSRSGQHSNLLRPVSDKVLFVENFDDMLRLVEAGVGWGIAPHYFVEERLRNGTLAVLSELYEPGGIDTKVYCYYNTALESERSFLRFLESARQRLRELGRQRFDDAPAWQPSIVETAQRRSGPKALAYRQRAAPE
Sequence of MvfR binding to the pqsA promoter (Q9I4X0 whole entry, looked up): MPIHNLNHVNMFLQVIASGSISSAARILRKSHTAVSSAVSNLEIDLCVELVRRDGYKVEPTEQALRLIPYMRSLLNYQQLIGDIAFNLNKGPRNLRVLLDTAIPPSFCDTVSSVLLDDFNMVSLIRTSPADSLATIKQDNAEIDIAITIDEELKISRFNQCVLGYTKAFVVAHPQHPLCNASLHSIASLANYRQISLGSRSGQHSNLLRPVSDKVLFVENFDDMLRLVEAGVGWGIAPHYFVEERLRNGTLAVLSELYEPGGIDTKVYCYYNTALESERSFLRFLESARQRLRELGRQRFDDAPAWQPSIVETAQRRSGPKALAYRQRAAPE

Structure (SMILES): Cc1cc(F)ccc1NCC(=O)Nc1ccc(C#N)cc1 [M17]
- % Production pqsA-GFP [1]: 32%
- Response Unit (RU) (MvfR protein (MvfRC87); Concentration 1.00E-05 M): 18.8 RU
- Response Unit (RU) (MvfR protein (MvfRC87); Concentration 1.00E-06 M): 6.7 RU
- Response Unit (RU) (MvfR protein (MvfRC87); Concentration 1.00E-07 M): 1.3 RU
- Response Unit (RU) (MvfR protein (MvfRC87); Concentration 1.00E-08 M): 0.7 RU
- Response Unit (RU) (MvfR protein (MvfRC87); Concentration 3.16E-06 M): 12.6 RU
- Response Unit (RU) (MvfR protein (MvfRC87); Concentration 3.16E-07 M): 3 RU
- Response Unit (RU) (MvfR protein (MvfRC87); Concentration 3.16E-08 M): 0.7 RU
- % Production Pyocyanin [2]: 67%
- % Production 2-AA [3]: 101%
- % Production DHQ [3]: 135%
- % Production HHQ [3]: 3%
- % Production HQNO [3]: 17%
- % Production PQS [3]: 11%
- % Production AA [3]: 100%

Structure (SMILES): N#Cc1ccc(NC(=O)CC(=O)Nc2cccc(Cl)c2)cc1 [D71]
- % Production pqsA-GFP [1]: 10%
- Response Unit (RU) (MvfR protein (MvfRC87); Concentration 1.00E-05 M): 31.7 RU
- Response Unit (RU) (MvfR protein (MvfRC87); Concentration 1.00E-06 M): 19.5 RU
- Response Unit (RU) (MvfR protein (MvfRC87); Concentration 1.00E-07 M): 5.9 RU
- Response Unit (RU) (MvfR protein (MvfRC87); Concentration 1.00E-08 M): 2.4 RU
- Response Unit (RU) (MvfR protein (MvfRC87); Concentration 3.16E-06 M): 26.8 RU
- Response Unit (RU) (MvfR protein (MvfRC87); Concentration 3.16E-07 M): 11.4 RU
- Response Unit (RU) (MvfR protein (MvfRC87); Concentration 3.16E-08 M): 3.1 RU
- % Production Pyocyanin [2]: 13%
- % Production 2-AA [3]: 57%
- % Production DHQ [3]: 92%
- % Production HHQ [3]: 106%
- % Production HQNO [3]: 127%
- % Production PQS [3]: 105%
- % Production AA [3]: 207%

Structure (SMILES): CCCCCCCc1nc2ccccc2c(O)c1O [PQS]
- MvfR binding to the pqsA promoter (ChIP-qPCR) [4]: 12.2267 and 11.783 and 5.7525

Structure (SMILES): N#Cc1ccc(NC(=O)CC(=O)Nc2ccc(C#N)c(Cl)c2)cc1 [D95]
- activity at 50 µM ([1]; Pseudomonas aeruginosa, PA14, read-out: % Production pqsA-GFP): 6%
- IC50 ([1]; Pseudomonas aeruginosa, PA14, read-out: IC50 pqsA-GFP expression, PA14, 13 concentrations): 1090 nM
- inhibition at 10 µM (PA14 AT/P cells): ≥ 51%
- activity at 50 µM ([5]; read-out: DHQ, ΔmvfR-pqsABCD strain): 95.2%
- activity at 50 µM ([5]; read-out: HQNO, ΔmvfR-pqsABCD strain): 97.2%
- activity at 50 µM ([5]; read-out: PQS, ΔmvfR-pqsABCD strain): 100%
- solubility at 4 h [6]: 17 µM (≈ 5.76 µg/mL)
- activity at 50 µM ([2]; Pseudomonas aeruginosa, PA14, 18 h, read-out: % Production Pyocyanin): 4%
- IC50 ([2]; Pseudomonas aeruginosa, PA14, read-out: IC50 pyocyanin production): 900 nM
- activity at 10 µM ([7]; read-out: Pyocyanin production relative to Control, clinical isolate LGR-4325): 11.5%
- activity at 10 µM ([7]; read-out: Pyocyanin production relative to Control, clinical isolate LGR-4326): 6.63%
- activity at 10 µM ([7]; read-out: Pyocyanin production relative to Control, clinical isolate LGR-4327): 14.1%
- activity at 10 µM ([7]; read-out: Pyocyanin production relative to Control, clinical isolate LGR-4328): 16.3%
- activity at 10 µM ([7]; read-out: Pyocyanin production relative to Control, clinical isolate LGR-4330): 19.6%
- activity at 10 µM ([7]; read-out: Pyocyanin production relative to Control, clinical isolate LGR-4331 (first section, r117)): 14.8%
- activity at 10 µM ([7]; read-out: Pyocyanin production relative to Control, clinical isolate LGR-4331 (second section, r140)): 7.46%
- activity at 10 µM ([7]; read-out: Pyocyanin production relative to Control, clinical isolate LGR-4333): 9.75%
- activity at 10 µM ([7]; read-out: Pyocyanin production relative to Control, clinical isolate LGR-4343): 12.1%
- activity at 10 µM ([7]; read-out: Pyocyanin production relative to Control, clinical isolate LGR-4344): 14.6%
- activity at 10 µM ([7]; read-out: Pyocyanin production relative to Control, clinical isolate LGR-4348): 19.2%
- activity at 10 µM ([7]; read-out: Pyocyanin production relative to Control, clinical isolate LGR-4356): 7.92%
- activity at 10 µM ([7]; read-out: Pyocyanin production relative to Control, clinical isolate LGR-4362): 30.4%
- activity at 10 µM ([7]; read-out: Pyocyanin production relative to Control, clinical isolate LGR-4363): 9.55%
- activity at 10 µM ([7]; read-out: Pyocyanin production relative to Control, clinical isolate LGR-4364 (first section, r326)): 8.11%
- activity at 10 µM ([7]; read-out: Pyocyanin production relative to Control, clinical isolate LGR-4364 (second section, r349)): 13.7%
- activity at 10 µM (ΔmvfR biofilm): 17.7%
- activity at 10 µM [8]: 35.3%
- activity at 50 µM ([3]; PA14, read-out: % Production 2-AA): 11%
- activity at 50 µM ([3]; PA14, read-out: % Production AA): 774%
- activity at 50 µM ([3]; PA14, read-out: % Production DHQ): 13%
- activity at 50 µM ([3]; PA14, read-out: % Production HHQ): 5%
- activity at 50 µM ([3]; PA14, read-out: % Production HQNO): 30%
- activity at 50 µM ([3]; PA14, read-out: % Production PQS): 10%
- inhibition at 50 µM ([3]; PA14, read-out: HHQ production inhibition): 89 to 99%
- inhibition at 50 µM ([3]; PA14, read-out: HQNO production inhibition): 40 to 92%
- inhibition at 50 µM ([3]; PA14, read-out: PQS production inhibition): 76 to 97%
- inhibition at 50 µM ([3]; PA14, read-out: inhibition of 2-AA production): 82 to 95%
- inhibition at 50 µM ([3]; PA14, read-out: inhibition of DHQ production): 82 to 96%

Structure (SMILES): Cc1cc(F)ccc1NC(C)C(=O)Nc1ccc(C#N)cc1 (stereo not shown) [G6]
- % Production pqsA-GFP [1]: 87%
- % Production Pyocyanin [2]: 110%
- % Production 2-AA [3]: 152%
- % Production HHQ [3]: 106%
- % Production HQNO [3]: 131%
- % Production PQS [3]: 115%

Structure (SMILES): Cc1cc(F)ccc1NCC(=O)Nc1ccc(C(F)(F)F)cc1 [G2]
- % Production pqsA-GFP [1]: 46%
- % Production Pyocyanin [2]: 61%
- % Production 2-AA [3]: 68%
- % Production DHQ [3]: 81%
- % Production HHQ [3]: 110%
- % Production HQNO [3]: 86%
- % Production PQS [3]: 93%

Structure (SMILES): O=C(CC(=O)Nc1ccc(Oc2ccccc2)cc1)Nc1ccc(Cl)cc1 [D67]
- % Production pqsA-GFP [1]: 41%
- % Production Pyocyanin [2]: 26%
- % Production 2-AA [3]: 84%
- % Production DHQ [3]: 105%
- % Production HHQ [3]: 101%
- % Production HQNO [3]: 105%
- % Production PQS [3]: 106%
- % Production AA [3]: 155%

Structure (SMILES): N#Cc1ccc(NC(=O)CC(=O)Nc2ccc(NC(=O)C(F)(F)F)cc2)cc1 [D54]
- % Production pqsA-GFP [1]: 85%
- % Production Pyocyanin [2]: 94%
- % Production 2-AA [3]: 117%
- % Production DHQ [3]: 108%
- % Production HHQ [3]: 103%
- % Production HQNO [3]: 101%
- % Production PQS [3]: 101%
- % Production AA [3]: 82%

Structure (SMILES): Cc1cc(F)ccc1NCC(=O)Nc1ccccc1C#N [G3]
- % Production pqsA-GFP [1]: 96%
- % Production Pyocyanin [2]: 113%
- % Production 2-AA [3]: 123%
- % Production HHQ [3]: 99%
- % Production HQNO [3]: 111%
- % Production PQS [3]: 122%

Structure (SMILES): Cc1cc(F)ccc1N1CCCC(NC(=O)c2ccc(C#N)cc2)C1 (stereo not shown) [D38]
- % Production pqsA-GFP [1]: 90%
- % Production Pyocyanin [2]: 108%
- % Production 2-AA [3]: 101%
- % Production DHQ [3]: 84%
- % Production HHQ [3]: 98%
- % Production HQNO [3]: 100%
- % Production PQS [3]: 96%
- % Production AA [3]: 54%
